In one assay the test system is Col1a1-Luci-reporter luciferase in LX-2 cells. Description: HSCs activation model based on Col1a1-Luci-reporter luciferase in transfected LX-2 cells (Duo-Lite luciferase assay; CI by CompuSyn). The assay is classed as cell-based, human. As to conditions: 10 µM, 20 µM, 50 µM, 12 hours. Here is the method:
LX-2 cells were inoculated into 96-well plates and cultured to a suitable density. Then, Lipofectamine 3000 liposome transfection reagent was used to prepare transfection system. Each well was transfected with 0.1 µg plasmid, of which the Empty vector group was transfected with pEZX-FR03-hygro empty plasmid, and the Control group and other administration groups were transfected with pEZX-FR03-hygro-COL1A1-WT plasmid.
The LX-2 cell line was transfected with plasmid for 6 hours, and then the drug-containing serum-free medium containing 2.5 mM, 5 mM, and 10 mM anti-fibrosis agent Pirfenidone was replaced according to groups for incubation for 12 hours, and then tested by the Duo-LitTM Luciferase Assay System kit.
The cell culture plate to be tested was taken out into the incubator, and left at room temperature for 30 min to allow the temperature of the culture plate to be balanced to room temperature. Firefly luciferase activity was detected. The original culture medium was discarded, and added with 75 µl PBS, then added with Duo-Lite Luciferase detection reagent with the same volume as PBS, and was mixed evenly. The system was left at room temperature for 10 min to detect firefly luciferase luminescence.
The LX-2 cell line was transfected with plasmid for 6 hours, and then the drug-containing serum-free medium containing 10 µM, 20 µM, 50 µM Silybin was replaced according to groups for incubation for 12 hours, and then tested by the Duo-LitTM Luciferase Assay System kit.
The LX-2 cell line was transfected with plasmid for 6 hours, and then the drug-containing serum-free medium containing 10 µM silybin, 10 µM drug to be screened, 20 µM silybin, 20 µM drug to be screened at a mixed ratio of 1:1 was replaced according to groups for incubation for 12 hours, and then tested by the Duo-LitTM Luciferase Assay System kit.
Cell activation inhibition rate% = (Control Group Firefly- Administration Group Firefly)/ Control Group Firefly ×100%. The CI value was obtained by analysis using micro-use CompuSyn software. […]
Take `COc1cc(C2Oc3cc([C@H]4Oc5cc(O)cc(O)c5C(=O)[C@@H]4O)ccc3OC2CO)ccc1O` (stereo partly shown) [silybin]: the “inhibitory effect on activation of stellate cells in vitro” value is recorded as “no significant inhibitory effect”.

Still in this assay, the particulars now being: 5 mM and 10 mM, 12 hours, clear dose-dependence.
Consider `Cc1ccc(=O)n(-c2ccccc2)c1` [Pirfenidone], for which the “expression level of luciferase” value is listed as “significantly decreased”.

Still in this assay, the particulars now being: named drug combined with silybin, mixed ratio 1:1, 12 hours, CI<0.90 synergistic, 0.90<CI<1.10 additive.
On to `CCCC1O[C@@H]2C[C@H]3[C@@H]4CCC5=CC(=O)C=C[C@]5(C)[C@H]4[C@@H](O)C[C@]3(C)[C@]2(C(=O)CO)O1` (stereo partly shown) [budesonide], for which the CI turned out to be 0.91.

With `OC[C@@H](O)[C@@H](O)[C@H](O)[C@H](O)CO` [D-mannitol], the CI is 0.66.

`CCOC(=O)C1=C(COCCN)NC(C)=C(C(=O)OC)C1c1ccccc1Cl` (stereo not shown) [amlodipine]: the CI was determined as 0.62. `COc1ccccc1OCCNCC(O)COc1cccc2[nH]c3ccccc3c12` (stereo not shown) [carvedilol]: the CI is 0.11. In the case of `CCC(=O)O[C@]1(C(=O)CCl)[C@@H](C)C[C@H]2[C@@H]3CCC4=CC(=O)C=C[C@]4(C)[C@@]3(F)[C@@H](O)C[C@@]21C` [clobetasol propionate], the CI came out at 0.86.

Take `O=C(O)COC(=O)Cc1ccccc1Nc1c(Cl)cccc1Cl` [aceclofenac]: the CI turned out to be 0.46. `COC(=O)C1=C(C)NC(C)=C(C(=O)OCCN(C)Cc2ccccc2)C1c1cccc([N+](=O)[O-])c1` (stereo not shown) [nicardipine]: the CI turned out to be 0.31. Regarding `COC(=O)C1=C(C)NC(C)=C(C(=O)OCCN2CCN(C(c3ccccc3)c3ccccc3)CC2)C1c1cccc([N+](=O)[O-])c1` (stereo not shown) [manidipine], the CI was found to be 0.54.

Take `CCCCC(=O)N(Cc1ccc(-c2ccccc2-c2nnn[nH]2)cc1)[C@H](C(=O)O)C(C)C` [valsartan]: the CI is recorded as 0.47. With `CCOc1ccccc1OCCN[C@H](C)Cc1ccc(OC)c(S(N)(=O)=O)c1` [tamsulosin], the CI was 0.50. The same measure, in the same setting: the figure for `COCCOC(=O)C1=C(C)NC(C)=C(C(=O)OC/C=C/c2ccccc2)C1c1cccc([N+](=O)[O-])c1` (stereo not shown) [cilnidipine] is 0.79.

Source of the values: patent EP4691462A1, “SILYBIN-CONTAINING COMPOSITION” (Tianjin Tasly Sants Pharmaceutical Co., Ltd., priority 2023, dated 2024).
